In US11717536B2, “Treatment for periodontitis” (THE UNIVERSITY OF MELBOURNE, priority 2017, dated 2023):
Marks after values point to notes of the source that are not given here.

Assays:
gingivitis = experiment: Clinical trial: gingivitis by Modified Gingival Index; format: in vivo, human; conditions: CPP-ACP gum (18.8 and 56.4 mg), 14 days, vs no gum chewing; FIG. 2
Description: Following the completion of the examination and supragingival plaque collection, participants received a supragingival scaling, clean and prophylaxis of all their teeth. At the completion of the last examination for leg 3, each participant received a professional fluoride treatment. Gingivitis was measured using the Modified Gingival Index [Lobene et al 1986]. This index is a modification of the Loe and Silness Gingival Index and allows greater discrimination for mild and moderate gingivitis. In this study, gingival inflammation on a scale from 0 to 4 was scored for gingival tissues associated with four sites (buccal, lingual, mesial and distal) of all teeth.

[1] = test system: Actinomyces naeslundii (NCTC 10301); experiment: Six species polymicrobial biofilm in constant-depth film fermenter, species composition: A. naeslundii; format: cell-based; conditions: 19 days; mean ± standard deviation; n = 5-21
Description: To model supragingival plaque six representative oral bacterial species, Streptococcus sanguinis (NCTC 7863), Streptococcus mutans Ingbritt, Actinomyces naeslundii (NCTC 10301), Veillonella parvula (ATCC 17745), Lactobacillus casei (NCDO 161) and Fusobacterium nucleatum (ATCC 10953) (Table 5) were cultured as a polymicrobial biofilm on a human enamel substratum in a constant-depth film fermenter (CDFF; Cardiff University, UK). The CDFF was housed in a 37° C. incubator under anaerobic conditions which were maintained by a constant flow of 5% CO2 in N2 at 1 L/h. The CDFF contained 15 removable polytetrafluoroethylene (PTFE) pans on a circular platform that was rotated at a constant speed of three rpm. The biofilms were grown on three enamel blocks (see below) in each PTFE pan using an artificial saliva medium (ASM, 2.5 g/L mucin type II (porcine, gastric, Sigma), 2.0 g/L bacteriological peptone (Oxoid), 2.0 g/L tryptone (Oxoid), 1.0 g/L yeast extract (Oxoid), 0.35 g/L NaCl, 0.2 g/L KCl, 0.2 mg/L vitamin K, 1 mg/L haemin and 0.1 g/L cysteine hydrochloride) at a constant flow rate of 30 mL/h. Prior to inoculation, the CDFF pan surfaces were conditioned for 24 h with ASM at a flow rate of 10 mL/h (McBain et al (2003) J Appl Microbiol. 94(4):655-66). In order to mimic in vivo bacterial growth conditions in the oral cavity with dietary sugar intake and to provide a high cariogenic challenge, a 1% (w/v) sucrose solution in ASM was pumped into the CDFF four times a day at four hourly intervals with a flow rate of 30 mL/h for 10 min.
Three treatments were applied to the polymicrobial biofilms: 290 ppm fluoride with 220 ppm fluoride as SnF2 and 70 ppm fluoride as NaF (referred to as SnF2), 2% CPP-ACP and 2% CPP-ACP-SnF2. […]
For each timepoint, DNA was extracted separately from 8-9 enamel blocks using PowerLyzer® PowerSoil® DNA Isolation Kits (MoBio Laboratories) following the manufacturers “Vacuum Protocol” with a Precellys® bead homogeniser (Bertin Technologies). Samples were quantified using a Qubit™ dsDNA HS assay kit (Life Technologies) before being stored at −80° C. […]

Lautropia mirabilis = experiment: Clinical trial: plaque microbial analysis, Lautropia mirabilis; format: in vivo; conditions: 18.8 mg CPP-ACP sugar-free gum, 20 min six times per day, 14 days, vs no gum chewing; supragingival plaque
Description: Following the completion of the examination and supragingival plaque collection, participants received a supragingival scaling, clean and prophylaxis of all their teeth. At the completion of the last examination for leg 3, each participant received a professional fluoride treatment.
Participants had all supragingival plaque collected from the buccal surfaces of their maxillary molars (teeth 17, 16, 26 & 27) with a sterile scaling instrument. The plaque samples from each tooth were placed in separate sterile tubes, to give four samples per participant.
Genomic DNA was extracted from the plaque using a combination of mechanical disruption of the cells via a Precellys homogeniser and the chemical extraction and purification of the genomic DNA via the PowerLyzer PowerSoil DNA Isolation Kit (MoBio). Quantitation of the extracted DNA was achieved using a Qubit dsDNA High Sensitivity Assay kit (ThermoFisher), before 5 ng DNA was used as template in a PCR reaction that amplified the V4 variable region of the 16S ribosomal RNA gene and individually barcoded the PCR product from each sample. The barcoded DNA was then sequenced using an Ion Torrent Personal Genome machine and Torrent Suite™ Software (ThermoFisher).
Analysis of the resulting sequence of the 16S ribosomal RNA gene enabled identification of the bacterial population present in each sample, down to the species level. […]

Q: For “Casein phosphopeptide-amorphous calcium phosphate [CPP-ACP]”, which gingival index (gingivitis) is on record?
A: Its gingival index is “significant CPP-ACP dose-related improvement”.

Q: And the “A. naeslundii as a percentage of total bacteria in the biofilm” value [1]?
A: The value was 11.93 ± 2.34^b %.

Q: What about the “% decrease in relative abundance, Lautropia mirabilis” value (Lautropia mirabilis) of the same substance?
A: The value was 70% (p < 0.05).
